Literature values, collected in patent US20260315605A1, “PROTACS FOR ASK1 PROTEIN DEGRADATION: PREPARATION AND USE THEREOF” (COUNCIL OF SCIENTIFIC AND INDUSTRIAL RESEARCH, priority 2023, published 2026).

Tests used:
NASH patients = conditions: Phase III, Harrison et al. 2020
ASK1/MAPK pathway = conditions: Harrison et al. 2020

## Cc1cc(F)c(C(=O)Nc2cccc(-c3nncn3C(C)C)n2)cc1-n1cnc(C2CC2)c1 [selonsertib]
NASH patients
  clinical outcome, fibrosis improvement: failed in Phase III clinical trial of fibrosis improvement in NASH patients
ASK1/MAPK pathway
  anti-fibrotic activity: promising anti-fibrotic activity
